# Experimental data from patent US9840532B2, “5′-substituted nucleoside compounds” (Eli Lilly and Company, priority 2015, dated 2017).
# Tested on: PRMT5-dependent alternative splicing of MDM4 in A375 melanoma cells
# Assay: MDM4 Exon5/6 qPCR Assay in A375 Tumor Cells
# Assay type: cell-based
# Settings: Homo sapiens, A-375, 72 hr, Mean ± SEM
# Experimental: Culture A375 tumor cells (ATCC), a melanoma cancer cell line, to 70%-90% confluence in T150 flasks with the growth medium (DMEM; HYCLONE™ #SH30022 with 10% FBS; GIBCO® 10082-147 or equivalent). Treat the cells with standard trypsin/EDTA treatment for 3 min and aspirate and wash with PBS to release the adherent cells from the culture flask. Seed the cells into a 96 well plate (Costar 3596) at 5000/well in growth medium (90 μL). Incubate the plate overnight at 37° C. and 5% CO2 and treat the cells with test compound at serial dilutions ([…], final DMSO addition of 0.2% yield) for 72 hr. Measure activity relative to maximum (2.0 μM of Example 2 and minimum (0.2% DMSO) controls.
# On Day 5 after incubation, remove the medium from the culture plates and wash the cells twice with cold PBS (150 μL/well). Prepare Lysis Working Reagent from the TAQMAN® Gene Expression Cells-to-CT Kit (INVITROGEN™ cat. # AM1729) by dilution of DNAse 1 into Lysis Solution at 1/100. Add Lysis Working Reagent (50 μL/well) to the cell plates, mix well, and incubate at room temperature for 5 min Add kit stop solution (5 μL) to each well, mix the wells, and incubate for 2 min at room temperature. Prepare Reverse Transcriptase Master Mix in the following volume ratios; RT buffer: Nuclease-free water: RT Enzyme at 62.5:31.25:6.25. Add RT mix (48 μL/well) to each well of a 96-well NUNC™ plate (THERMO SCIENTIFIC™ #260860). Add RT mix (20 μL) and each cell lysate sample (5 μL) into a 384 PCR plate (Clear Optical Reaction Plate, cat. #4309849, APPLIED BIOSYSTEMS®) quadrant 1 and add a second addition of RT Mix and cell lysate to quadrant 3. For the RT reaction, seal the plates and then place them in a thermal cycler set at 37° C. for 60 min; 95° C. for 5 min; stop at 4° C. For qPCR, prepare MDM4 exon 5 primers (Life Technologies Hs00967240-ml) and exon 6 primers (Life Technologies Hs00967242-ml) separately in the following volume ratios of RT mix: H2O: exon probe at 10:6:1. Add Exon 5 (17 μL) to odd columns of a 384 PCR plate and add exon 6 (17 μL) to the even columns. Add cDNA (3 μL, from the RT plate) by quadrant stamping to each well of the qPCR plate containing the 17 μL exon primer solution. In this manner, perform qPCR for both exons on cDNAs from a single RT reaction on an individual cell lysate. Seal the plates, spin, and place on a real-time PCR instrument (Life Technologies ViiA7 Real-Time PCR). […]
# Retrieve CT data from the real-time PCR reader and perform the following calculations, where “CPD” is the value from compound-treated samples, and “DMSO” is the minimum control sample, using an Excel template: (Exon 6 CT CPD−Exon 6 CT DMSO)−(Exon 5 CT CPD−Exon 5 CT DMSO)=ΔCT 2^(−ΔCT)=Fold Change […]
row,SMILES,EC50 [nM]
1,"C[C@@](O)(c1ccc(Cl)cc1)[C@H]1O[C@@H](n2ccc3c(N)ncnc32)[C@H](O)[C@@H]1O [Example 3, (2R,3R,4S,5S)-2-(4-Aminopyrrolo[2,3-d]pyrimidin-7-yl)-5-[(1R)-1-(4-chlorophenyl)-1-hydroxy-ethyl]tetrahydrofuran-3,4-diol]",42.4
2,"Nc1ncnc2c1ccn2[C@@H]1O[C@H]([C@H](O)c2ccc(Cl)cc2)[C@@H](O)[C@H]1O [Example 1, (2R,3R,4S,5R)-2-(4-Aminopyrrolo[2,3-d]pyrimidin-7-yl)-5-[(R)-(4-chlorophenyl)-hydroxy-methyl]tetrahydrofuran-3,4-diol]",16.8
3,"Nc1ncnc2c1ccn2[C@@H]1O[C@H]([C@H](O)c2ccccc2)[C@@H](O)[C@H]1O [Example 2, (2R,3R,4S,5R)-2-(4-Aminopyrrolo[2,3-d]pyrimidin-7-yl)-5[(R)-hydroxy(phenyl)methyl]tetrahydrofuran-3,4-diol]",36.7
